± gives the standard deviation of the averaged measurements.
Test system: SK-ES-1
Assay: relative viability vs DMSO control (72 h) (fraction); higher = more viable cells
How it was run: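 Sarcoma cell lines were seeded in 384-well plates at densities set to reach 80–90% confluence. After 24 h, 2.5 µl of serially diluted compound was added (source plates 10 mM to 0.0002 mM), and plates were held 72 h at 37 °C, 5% CO2, with 0.1% DMSO vehicle and a 5 µM positive control. Relative viability came from ATPLite readings as percent growth, averaged over up to triplicate wells. Data were rescaled so full viability equals 1 and none equals 0.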

Cc1ccc(F)c(NC(=O)Nc2ccc(-c3cccc4[nH]nc(N)c34)cc2)c1 [Linifanib]
relative viability (0.00017 µM): 1.07 ± 0.098 | relative viability (0.00051 µM): 1.07 ± 0.044 | relative viability (0.00152 µM): 1.08 ± 0.043 | relative viability (0.00457 µM): 1.11 ± 0.025 | relative viability (0.01372 µM): 1.09 ± 0.052 | relative viability (0.04115 µM): 1.04 ± 0.028 | relative viability (0.1235 µM): 1.04 ± 0.038 | relative viability (0.3704 µM): 1.05 ± 0.039 | relative viability (1.111 µM): 1.01 ± 0.032 | relative viability (3.333 µM): 0.879 ± 0.17 | relative viability (10 µM): 1.03 ± 0.034

CNC(=O)c1ccc(-c2cnc3ncc(Cc4ccc5ncccc5c4)n3n2)cc1F [Capmatinib]
relative viability (0.00017 µM): 1.06 ± 0.011 | relative viability (0.00051 µM): 1.05 ± 0.022 | relative viability (0.00152 µM): 1.11 ± 0.023 | relative viability (0.00457 µM): 1.08 ± 0.04 | relative viability (0.01372 µM): 1.06 ± 0.021 | relative viability (0.04115 µM): 1.09 ± 0.015 | relative viability (0.1235 µM): 1.09 ± 0.048 | relative viability (0.3704 µM): 1.08 ± 0.049 | relative viability (1.111 µM): 1.12 ± 0.03 | relative viability (3.333 µM): 1.08 ± 0.026 | relative viability (10 µM): 1.07 ± 0.026

CN1CCC(COc2cnc(-c3cccc(Cn4nc(-c5cccc(C#N)c5)ccc4=O)c3)nc2)CC1 [Tepotinib]
relative viability (0.00017 µM): 0.997 ± 0.018 | relative viability (0.00051 µM): 1.08 ± 0.037 | relative viability (0.00152 µM): 1.06 ± 0.026 | relative viability (0.00457 µM): 1.06 ± 0.023 | relative viability (0.01372 µM): 1.02 ± 0.018 | relative viability (0.04115 µM): 1.06 ± 0.028 | relative viability (0.1235 µM): 1.003 ± 0.0064 | relative viability (0.3704 µM): 1 ± 0.037 | relative viability (1.111 µM): 0.974 ± 0.045 | relative viability (3.333 µM): 0.98 ± 0.038 | relative viability (10 µM): 0.718 ± 0.031

N#CC[C@H](C1CCCC1)n1cc(-c2ncnc3[nH]ccc23)cn1 [Ruxolitinib]
relative viability (0.00017 µM): 0.926 ± 0.028 | relative viability (0.00051 µM): 0.974 ± 0.027 | relative viability (0.00152 µM): 0.96 ± 0.038 | relative viability (0.00457 µM): 0.9617 ± 0.0031 | relative viability (0.01372 µM): 0.942 ± 0.039 | relative viability (0.04115 µM): 0.95 ± 0.049 | relative viability (0.1235 µM): 0.933 ± 0.024 | relative viability (0.3704 µM): 0.959 ± 0.044 | relative viability (1.111 µM): 0.932 ± 0.025 | relative viability (3.333 µM): 0.897 ± 0.05 | relative viability (10 µM): 0.812 ± 0.04

CC(C)(C)c1cc(NC(=O)Nc2ccc(-c3cn4c(n3)sc3cc(OCCN5CCOCC5)ccc34)cc2)no1 [Quizartinib]
relative viability (0.00017 µM): 0.995 ± 0.028 | relative viability (0.00051 µM): 1.05 ± 0.05 | relative viability (0.00152 µM): 1.08 ± 0.014 | relative viability (0.00457 µM): 1.1 ± 0.036 | relative viability (0.01372 µM): 1.08 ± 0.037 | relative viability (0.04115 µM): 1.04 ± 0.011 | relative viability (0.1235 µM): 1.08 ± 0.035 | relative viability (0.3704 µM): 1.1 ± 0.069 | relative viability (1.111 µM): 0.904 ± 0.033 | relative viability (3.333 µM): 0.674 ± 0.049 | relative viability (10 µM): 0.594 ± 0.056

COc1c(OCCCN2CCOCC2)ccc2c1N=C(NC(=O)c1cnc(N)nc1)N1CCN=C21 [Copanlisib]
relative viability (0.00017 µM): 1.02 ± 0.022 | relative viability (0.00051 µM): 1.07 ± 0.036 | relative viability (0.00152 µM): 1.01 ± 0.021 | relative viability (0.00457 µM): 0.808 ± 0.019 | relative viability (0.01372 µM): 0.629 ± 0.015 | relative viability (0.04115 µM): 0.4325 ± 0.0023 | relative viability (0.1235 µM): 0.3049 ± 0.0025 | relative viability (0.3704 µM): 0.214 ± 0.016 | relative viability (1.111 µM): 0.15 ± 0.0035 | relative viability (3.333 µM): 0.0822 ± 0.0034 | relative viability (10 µM): 0.0455 ± 0.0028

Cc1ccc(NC(=O)c2ccc(CN3CCN(C)CC3)cc2)cc1Nc1nc(-c2cccnc2)cs1 [Masitinib]
relative viability (0.00017 µM): 1 ± 0.018 | relative viability (0.00051 µM): 0.9842 ± 0.008 | relative viability (0.00152 µM): 0.999 ± 0.032 | relative viability (0.00457 µM): 1.06 ± 0.013 | relative viability (0.01372 µM): 0.981 ± 0.033 | relative viability (0.04115 µM): 1.01 ± 0.017 | relative viability (0.1235 µM): 1 ± 0.042 | relative viability (0.3704 µM): 0.93 ± 0.05 | relative viability (1.111 µM): 0.817 ± 0.039 | relative viability (3.333 µM): 0.5209 ± 0.0016 | relative viability (10 µM): 0.138 ± 0.012

Cn1cc(-c2cc3c(N4CCN(c5ncc([C@@](C)(N)c6ccc(F)cc6)cn5)CC4)ncnn3c2)cn1 [Avapritinib]
relative viability (0.00017 µM): 0.98 ± 0.026 | relative viability (0.00051 µM): 0.981 ± 0.045 | relative viability (0.00152 µM): 0.941 ± 0.011 | relative viability (0.00457 µM): 1 ± 0.018 | relative viability (0.01372 µM): 0.989 ± 0.05 | relative viability (0.04115 µM): 0.96 ± 0.042 | relative viability (0.1235 µM): 0.948 ± 0.027 | relative viability (0.3704 µM): 0.975 ± 0.036 | relative viability (1.111 µM): 0.906 ± 0.018 | relative viability (3.333 µM): 0.778 ± 0.071 | relative viability (10 µM): 0.579 ± 0.022

O=C(Cc1ccc(-c2ccc(OCCN3CCOCC3)cc2)cn1)NCc1ccccc1 [KX2-391]
relative viability (0.00017 µM): 1.07 ± 0.02 | relative viability (0.00051 µM): 1.11 ± 0.035 | relative viability (0.00152 µM): 1.05 ± 0.059 | relative viability (0.00457 µM): 1.07 ± 0.026 | relative viability (0.01372 µM): 1.05 ± 0.032 | relative viability (0.04115 µM): 0.235 ± 0.039 | relative viability (0.1235 µM): 0.024 ± 0.0039 | relative viability (0.3704 µM): 0.0226 ± 0.00042 | relative viability (1.111 µM): 0.0192 ± 0.0041 | relative viability (3.333 µM): 0.0176 ± 0.0029 | relative viability (10 µM): 0.0223 ± 0.0021

— the supplement of paper PMC10883282
